Experimental data published in patent US9149038B2, “4-amino-6-(heterocyclic)picolinates and 6-amino-2-(heterocyclic)pyrimidine-4-carboxylates and their use as herbicides” (Dow AgroSciences LLC, priority 2013, dated 2015).
Like-named read-outs stand apart in the source and are kept apart here.

Experiments:
[1] = tested on: Key Broadleaf Weed and Crop Species; test: Post-Emergent Test II: postemergent herbicidal activity, visual rating after 14 d (Table 7); assay type: in vivo; conditions: post-emergence, 336 h; for pest or weed control at 35 g/ha: 35 g ai/ha; for pest or weed control at 70 g/ha: 70 g ai/ha; for pest or weed control at 140 g/ha: 140 g ai/ha
Method in brief: (§1)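 Plants were raised in a greenhouse for 7-21 d and treated once at the first or second true leaf stage. Compounds, dissolved in 97:3 acetone:DMSO then diluted into an aqueous acetone/isopropanol/crop oil/Triton X-155 carrier, were applied by overhead track sprayer at 187 L/ha. After 14 d with subirrigation, injury was scored visually from 0 (none) to 100 (complete kill).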

[2] = tested on: Key Grass and Sedge Weeds as well as Grass Crops; test: Post-Emergent Test II: postemergent herbicidal activity, visual rating after 14 d (Table 8); assay type: in vivo; conditions: post-emergence, 336 h; for pest or weed control at 35 g/ha: 35 g ai/ha; for pest or weed control at 70 g/ha: 70 g ai/ha; for pest or weed control at 140 g/ha: 140 g ai/ha
Method in brief: as §1

[3] = ABUTH: velvetleaf (Abutilon theophrasti), read-out: Visual Growth Reduction (%) 14 Days After Application ABUTH
[4] = AMARE: redroot pigweed (Amaranthus retroflexus), read-out: Visual Growth Reduction (%) 14 Days After Application AMARE
[5] = BRSNN: oilseed rape, canola (Brassica napus), read-out: Visual Growth Reduction (%) 14 Days After Application BRSNN
[6] = CHEAL: lambsquarters (Chenopodium album), read-out: Visual Growth Reduction (%) 14 Days After Application CHEAL
[7] = EPHHL: wild poinsettia (Euphorbia heterophylla), read-out: Visual Growth Reduction (%) 14 Days After Application EPHHL
[8] = HELAN: sunflower (Helianthus annuus), read-out: Visual Growth Reduction (%) 14 Days After Application HELAN
[9] = barnyardgrass (Echinochloa crus-galli), read-out: Visual Growth Reduction (%) 14 Days After Application, ECHCG
[10] = giant foxtail (Setaria faberi), read-out: Visual Growth Reduction (%) 14 Days After Application, SETFA
[11] = maize, corn (Zea mays), read-out: Visual Growth Reduction (%) 14 Days After Application, ZEAMX
[12] = rice (Oryza sativa), read-out: Visual Growth Reduction (%) 14 Days After Application, ORYSA
[13] = wheat, spring (Triticum aestivum), read-out: Visual Growth Reduction (%) 14 Days After Application, TRZAS
[14] = yellow nutsedge (Cyperus esculentus), read-out: Visual Growth Reduction (%) 14 Days After Application, CYPES

`COC(=O)c1nc(-c2cccc3c2OC(F)(F)O3)nc(N)c1OC` [Compound 99] was tested, and the pest or weed control at 35 g/ha [1, 3] was 0 to 29%, the pest or weed control at 70 g/ha [1, 3] was 0 to 29% and the pest or weed control at 140 g/ha [1, 3] was 0 to 29%. For the same compound, the pest or weed control at 35 g/ha [1, 4] was 0 to 29%, the pest or weed control at 70 g/ha [1, 4] was 0 to 29% and the pest or weed control at 140 g/ha [1, 4] was 0 to 29%. For the same compound, the pest or weed control at 35 g/ha [1, 5] was 0 to 29%, the pest or weed control at 70 g/ha [1, 5] was 0 to 29% and the pest or weed control at 140 g/ha [1, 5] was 0 to 29%. The pest or weed control at 35 g/ha [1, 6] was 60 to 74%, the pest or weed control at 70 g/ha [1, 6] was 75 to 84% and the pest or weed control at 140 g/ha [1, 6] was 85 to 94%. It also gave a pest or weed control at 35 g/ha [1, 7] of 0 to 29%, a pest or weed control at 70 g/ha [1, 7] of 0 to 29% and a pest or weed control at 140 g/ha [1, 7] of 0 to 29%. The pest or weed control at 35 g/ha [1, 8] was 75 to 84%, the pest or weed control at 70 g/ha [1, 8] was 85 to 94% and the pest or weed control at 140 g/ha [1, 8] was 85 to 94%. It also gave a pest or weed control at 35 g/ha [2, 9] of 0 to 29%, a pest or weed control at 70 g/ha [2, 9] of 0 to 29% and a pest or weed control at 140 g/ha [2, 9] of 0 to 29%. The pest or weed control at 35 g/ha [2, 10] was 0 to 29%, the pest or weed control at 70 g/ha [2, 10] was 0 to 29% and the pest or weed control at 140 g/ha [2, 10] was 0 to 29%. It also gave a pest or weed control at 35 g/ha [2, 11] of 0 to 29%, a pest or weed control at 70 g/ha [2, 11] of 0 to 29% and a pest or weed control at 140 g/ha [2, 11] of 0 to 29%. It also gave a pest or weed control at 35 g/ha [2, 12] of 0 to 29%, a pest or weed control at 70 g/ha [2, 12] of 0 to 29% and a pest or weed control at 140 g/ha [2, 12] of 0 to 29%. For the same compound, the pest or weed control at 35 g/ha [2, 13] was 0 to 29%, the pest or weed control at 70 g/ha [2, 13] was 0 to 29% and the pest or weed control at 140 g/ha [2, 13] was 0 to 29%. It also gave a pest or weed control at 35 g/ha [2, 14] of 0 to 29%, a pest or weed control at 70 g/ha [2, 14] of 0 to 29% and a pest or weed control at 140 g/ha [2, 14] of 0 to 29%.
